In PubChem BioAssay (NCI):
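GI50 marks 50% less growth. At the TGI there is no net growth.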

Tests used:
Assay in all cases: NCI anticancer screen, dose series, 384-well format
HS 578T breast = test system: HS 578T breast
MCF7 breast = test system: MCF7 breast
HCT-116 colon = test system: HCT-116 colon
NCI-H460 NSCLC = test system: NCI-H460 NSCLC
EKVX NSCLC = test system: EKVX NSCLC
CCRF-CEM leukemia = test system: CCRF-CEM leukemia
A498 renal = test system: A498 renal
HOP-92 NSCLC = test system: HOP-92 NSCLC
OVCAR-8 ovarian = test system: OVCAR-8 ovarian
DU-145 prostate = test system: DU-145 prostate
HL-60(TB) leukemia = test system: HL-60(TB) leukemia
SW-620 colon = test system: SW-620 colon
MOLT-4 leukemia = test system: MOLT-4 leukemia
NCI-H226 lung = test system: NCI-H226 lung
NCI-H322M lung = test system: NCI-H322M lung
BT-549 breast = test system: BT-549 breast
SK-OV-3 ovarian = test system: SK-OV-3 ovarian
SNB-75 CNS = test system: SNB-75 CNS
MDA-MB-468 breast = test system: MDA-MB-468 breast
CAKI-1 renal = test system: CAKI-1 renal
SN12C renal = test system: SN12C renal
NCI/ADR-RES ovarian = test system: NCI/ADR-RES ovarian
A549 NSCLC = test system: A549 NSCLC
HT29 colon = test system: HT29 colon
786-0 renal = test system: 786-0 renal
RXF 393 renal = test system: RXF 393 renal
SF-295 CNS = test system: SF-295 CNS
UACC-257 melanoma = test system: UACC-257 melanoma
SF-539 CNS = test system: SF-539 CNS
OVCAR-5 ovarian = test system: OVCAR-5 ovarian
KM12 colon = test system: KM12 colon
SR leukemia = test system: SR leukemia
MDA-MB-231 breast = test system: MDA-MB-231 breast
OVCAR-4 ovarian = test system: OVCAR-4 ovarian
U251 glioblastoma = test system: U251 glioblastoma
MALME-3M melanoma = test system: MALME-3M melanoma
T-47D breast = test system: T-47D breast
SNB-19 CNS = test system: SNB-19 CNS
HCC-2998 colon = test system: HCC-2998 colon
COLO 205 colon = test system: COLO 205 colon
UO-31 renal = test system: UO-31 renal
LOX IMVI melanoma = test system: LOX IMVI melanoma
OVCAR-3 ovarian = test system: OVCAR-3 ovarian
SK-MEL-5 melanoma = test system: SK-MEL-5 melanoma
SK-MEL-28 melanoma = test system: SK-MEL-28 melanoma
K-562 leukemia = test system: K-562 leukemia
HOP-62 NSCLC = test system: HOP-62 NSCLC
PC-3 prostate = test system: PC-3 prostate
TK-10 renal = test system: TK-10 renal
NCI-H522 lung = test system: NCI-H522 lung
ACHN renal = test system: ACHN renal
NCI-H23 lung = test system: NCI-H23 lung
MDA-MB-435 melanoma = test system: MDA-MB-435 melanoma
SF-268 CNS = test system: SF-268 CNS
M14 melanoma = test system: M14 melanoma
RPMI-8226 leukemia = test system: RPMI-8226 leukemia
HCT-15 colon = test system: HCT-15 colon
IGROV1 ovarian = test system: IGROV1 ovarian

NC(=O)c1ccc(-c2nc(-c3ccc4c(c3)OCO4)c(-c3ccccn3)[nH]2)cc1
GI50 (HS 578T breast): 25.3 µM
TGI (HS 578T breast): 60.1 µM
GI50 (MCF7 breast): 20.6 µM
TGI (MCF7 breast): 49.1 µM
GI50 (HCT-116 colon): 16.9 µM
TGI (HCT-116 colon): 32.2 µM
GI50 (NCI-H460 NSCLC): 14.4 µM
TGI (NCI-H460 NSCLC): 28.1 µM
GI50 (EKVX NSCLC): 14.3 µM
TGI (EKVX NSCLC): 59.1 µM
GI50 (CCRF-CEM leukemia): 18.1 µM
TGI (CCRF-CEM leukemia): 38.7 µM
GI50 (A498 renal): 23.4 µM
TGI (A498 renal): 56.3 µM
GI50 (HOP-92 NSCLC): 30.7 µM
TGI (HOP-92 NSCLC): 95.7 µM
GI50 (OVCAR-8 ovarian): 22.6 µM
TGI (OVCAR-8 ovarian): 52.2 µM
GI50 (DU-145 prostate): 23.7 µM
TGI (DU-145 prostate): 52.1 µM
GI50 (HL-60(TB) leukemia): 17.8 µM
TGI (HL-60(TB) leukemia): 31.7 µM
GI50 (SW-620 colon): 60.6 µM
TGI (SW-620 colon): > 100 µM
GI50 (MOLT-4 leukemia): 16.5 µM
TGI (MOLT-4 leukemia): 30.3 µM
GI50 (NCI-H226 lung): 17.2 µM
TGI (NCI-H226 lung): 32.7 µM
GI50 (NCI-H322M lung): 27.9 µM
TGI (NCI-H322M lung): 90.6 µM
GI50 (BT-549 breast): 17.5 µM
TGI (BT-549 breast): 64.3 µM
GI50 (SK-OV-3 ovarian): 24.3 µM
TGI (SK-OV-3 ovarian): 64.9 µM
GI50 (SNB-75 CNS): 42.4 µM
TGI (SNB-75 CNS): > 100 µM
GI50 (MDA-MB-468 breast): 17.9 µM
TGI (MDA-MB-468 breast): 36.9 µM
GI50 (CAKI-1 renal): 28.4 µM
TGI (CAKI-1 renal): 72.9 µM
GI50 (SN12C renal): 39.1 µM
TGI (SN12C renal): > 100 µM
GI50 (NCI/ADR-RES ovarian): 16.4 µM
TGI (NCI/ADR-RES ovarian): 33.3 µM
GI50 (A549 NSCLC): 21.1 µM
TGI (A549 NSCLC): 57.1 µM
GI50 (HT29 colon): 19.9 µM
TGI (HT29 colon): 44.9 µM
GI50 ([…]-0 renal): 28 µM
TGI (786-0 renal): 81.6 µM
GI50 (RXF 393 renal): 11.9 µM
TGI (RXF 393 renal): 26.8 µM
GI50 (SF-295 CNS): 20.2 µM
TGI (SF-295 CNS): 43.3 µM
GI50 (UACC-257 melanoma): 22.4 µM
TGI (UACC-257 melanoma): 43 µM
GI50 (SF-539 CNS): 41.8 µM
TGI (SF-539 CNS): > 100 µM
GI50 (OVCAR-5 ovarian): 26.6 µM
TGI (OVCAR-5 ovarian): 81.9 µM
GI50 (KM12 colon): 27 µM
TGI (KM12 colon): 73.2 µM
GI50 (SR leukemia): 17.5 µM
TGI (SR leukemia): 32.4 µM
GI50 (MDA-MB-231 breast): 22.2 µM
TGI (MDA-MB-231 breast): 83 µM
GI50 (OVCAR-4 ovarian): 26.7 µM
TGI (OVCAR-4 ovarian): 71.6 µM
GI50 (U251 glioblastoma): 35.2 µM
TGI (U251 glioblastoma): > 100 µM
GI50 (MALME-3M melanoma): 29.7 µM
TGI (MALME-3M melanoma): 52.4 µM
GI50 (T-47D breast): 20.4 µM
TGI (T-47D breast): 42.4 µM
GI50 (SNB-19 CNS): 40.1 µM
TGI (SNB-19 CNS): > 100 µM
GI50 (HCC-2998 colon): 16.7 µM
TGI (HCC-2998 colon): 36.3 µM
GI50 (COLO 205 colon): 21.7 µM
TGI (COLO 205 colon): 39.3 µM
GI50 (UO-31 renal): 42.6 µM
TGI (UO-31 renal): > 100 µM
GI50 (LOX IMVI melanoma): 14.2 µM
TGI (LOX IMVI melanoma): 29.4 µM
GI50 (OVCAR-3 ovarian): 21.6 µM
TGI (OVCAR-3 ovarian): 47.1 µM
GI50 (SK-MEL-5 melanoma): 7.13 µM
TGI (SK-MEL-5 melanoma): 19.5 µM
GI50 (SK-MEL-28 melanoma): 32.9 µM
TGI (SK-MEL-28 melanoma): 86.5 µM
GI50 (K-562 leukemia): 35.3 µM
TGI (K-562 leukemia): > 100 µM
GI50 (HOP-62 NSCLC): 18.5 µM
TGI (HOP-62 NSCLC): 43 µM
GI50 (PC-3 prostate): 27.2 µM
TGI (PC-3 prostate): > 100 µM
GI50 (TK-10 renal): 24.6 µM
TGI (TK-10 renal): 60.4 µM
GI50 (NCI-H522 lung): 24.2 µM
TGI (NCI-H522 lung): 46.1 µM
GI50 (ACHN renal): 44.7 µM
TGI (ACHN renal): > 100 µM
GI50 (NCI-H23 lung): 22 µM
TGI (NCI-H23 lung): 47.7 µM
GI50 (MDA-MB-435 melanoma): 39.6 µM
TGI (MDA-MB-435 melanoma): > 100 µM
GI50 (SF-268 CNS): 38 µM
TGI (SF-268 CNS): > 100 µM
GI50 (M14 melanoma): 24.4 µM
TGI (M14 melanoma): 83.2 µM
GI50 (RPMI-8226 leukemia): 15.7 µM
TGI (RPMI-8226 leukemia): 30.4 µM
GI50 (HCT-15 colon): 18.9 µM
TGI (HCT-15 colon): 36 µM
GI50 (IGROV1 ovarian): 19.6 µM
TGI (IGROV1 ovarian): 46.1 µM
